Test results: patent US20250114289A1, “HAIR DYE COMPOSITION” (The Procter & Gamble Company, priority 2023, published 2025)

Columns and labels:
[1] = Solubility of photochromic dyes in cosmetically acceptable solvents; type: physicochemical
Excerpt: Thus, it is important to select a solvent that is suitable for use on human skin and hair and enables formulation of a stable hair dye composition with sufficient dye to provide good hair coloring results.

[2] = Activating EMR and deactivating EMR wavelengths of diarylethene photochromic dyes; type: physicochemical; details: for peak activating EMR: FIG. 5; for peak deactivating EMR: FIG. 6
Excerpt: The activation and deactivation properties are illustrated in FIGS. 5 and 6, respectively.

Cc1sc(-c2ccccc2)nc1C1=C(c2nc(-c3ccccc3)sc2C)C(F)(F)C(F)(F)C1(F)F [DAE-0012, 4,4′-(perfluorocyclopent-1-ene-1,2-diyl)bis(5-methyl-2-phenylthiazole)]
Max concentration ([1]; solvent Caprylic triglyceride): 0.91 % w/w
Max concentration ([1]; solvent Isopropyl isostearate): 2.32 % w/w
Max concentration ([1]; solvent Isopropyl myristate): 2.25 % w/w
Max concentration ([1]; solvent Oleyl alcohol): 0.79 % w/w
Max concentration ([1]; solvent Polysorbate 20): 1.78 % w/w
Max concentration ([1]; solvent Polysorbate 80): 2.20 % w/w
peak activating EMR [2]: 290-310 nm
peak deactivating EMR [2]: 510-540 nm

Cc1cc(C)c(C2=C(c3sc(C)cc3C)C(F)(F)C(F)(F)C2(F)F)s1 [DAE-0068, 5,5′-(perfluorocyclopent-1-ene-1,2-diyl)bis(2,4-dimethylthiophene)]
Max concentration ([1]; solvent Caprylic triglyceride): 3.46 % w/w
Max concentration ([1]; solvent Isopropyl isostearate): 3.41 % w/w
Max concentration ([1]; solvent Isopropyl myristate): 3.09 % w/w
Max concentration ([1]; solvent Oleyl alcohol): 1.34 % w/w
Max concentration ([1]; solvent Polysorbate 20): 0.95 % w/w
Max concentration ([1]; solvent Polysorbate 80): 0.89 % w/w
peak activating EMR [2]: 330-360 nm
peak deactivating EMR [2]: 410-450 nm

Cc1sc(-c2ccccc2)cc1C1=C(c2cc(-c3ccccc3)sc2C)C(F)(F)C(F)(F)C1(F)F [DAE-0001, 3,3′-(perfluorocyclopent-1-ene-1,2-diyl)bis(2-methyl-5-phenylthiophene)]
Max concentration ([1]; solvent Caprylic triglyceride): 0.66 % w/w
Max concentration ([1]; solvent Isopropyl isostearate): 4.95 % w/w
Max concentration ([1]; solvent Isopropyl myristate): 4.8 % w/w
Max concentration ([1]; solvent Oleyl alcohol): 1.47 % w/w
Max concentration ([1]; solvent Polysorbate 20): 0.9 % w/w
Max concentration ([1]; solvent Polysorbate 80): 1.08 % w/w
peak deactivating EMR [2]: 560-610 nm
